Data reported in ChEMBL document CHEMBL1121442, “Synthesis and antitrypanosomal activity of some bis(4-guanylphenyl) five- and six-membered ring heterocycles” (1980).

Key:
[1] = test system: Mus musculus; test: Tested for antiTrypanosomal activity against Trypanosoma rhodesiense in mice at dose of 40 mg/kg expressed as mean survival time (MST) or cures; type: functional
[2] = test system: Mus musculus; test: Tested for antiTrypanosomal activity against Trypanosoma rhodesiense in mice at dose of 320 mg/kg expressed as mean survival time (MST) or cures; type: functional
[3] = test system: Mus musculus; test: Tested for antiTrypanosomal activity against Trypanosoma rhodesiense in mice at dose of 5 mg/kg expressed as mean survival time (MST) or cures; type: functional
[4] = test system: Mus musculus; test: Tested for antiTrypanosomal activity against Trypanosoma rhodesiense in mice at dose of 2.5 mg/kg expressed as mean survival time (MST) or cures; type: functional
[5] = test system: Mus musculus; test: Tested for antiTrypanosomal activity against Trypanosoma rhodesiense in mice at dose of 640 mg/kg expressed as mean survival time (MST) or cures; type: functional
[6] = test system: Mus musculus; test: Tested for antiTrypanosomal activity against Trypanosoma rhodesiense in mice at dose of 10 mg/kg expressed as mean survival time (MST) or cures; type: functional
[7] = test system: Mus musculus; test: Tested for antiTrypanosomal activity against Trypanosoma rhodesiense in mice at dose of 20 mg/kg expressed as mean survival time (MST) or cures; type: functional
[8] = test system: Mus musculus; test: Tested for antiTrypanosomal activity against Trypanosoma rhodesiense in mice at dose of 1.25 mg/kg expressed as mean survival time (MST) or cures; type: functional
[9] = test system: Mus musculus; test: Tested for antiTrypanosomal activity against Trypanosoma rhodesiense in mice at dose of 80 mg/kg expressed as mean survival time (MST) or cures; type: functional
[10] = test system: Mus musculus; test: Tested for antiTrypanosomal activity against Trypanosoma rhodesiense in mice at dose of 160 mg/kg expressed as mean survival time (MST) or cures; type: functional
[11] = test system: Mus musculus; test: Tested for antiTrypanosomal activity against Trypanosoma rhodesiense in mice at dose of 424 mg/kg expressed as mean survival time (MST) or cures T - toxic death; type: functional, organism-based; parameters: dose 424 mg/kg
[12] = test system: Mus musculus; test: Tested for antiTrypanosomal activity against Trypanosoma rhodesiense in mice at dose of 106 mg/kg expressed as mean survival time (MST) or cures T - toxic death; type: functional, organism-based; parameters: dose 106 mg/kg
[13] = test system: Mus musculus; test: Tested for antiTrypanosomal activity against Trypanosoma rhodesiense in mice at dose of 26.5 mg/kg expressed as mean survival time (MST) or cures T - toxic death; type: functional, organism-based; parameters: dose 26.5 mg/kg
[14] = test system: Mus musculus; test: Tested for antiTrypanosomal activity against Trypanosoma rhodesiense in mice at dose of 160 mg/kg expressed as mean survival time (MST) or cures T - toxic death; type: functional, organism-based; parameters: dose 160 mg/kg
[15] = test system: Mus musculus; test: Tested for antiTrypanosomal activity against Trypanosoma rhodesiense in mice at dose of 320 mg/kg expressed as mean survival time (MST) or cures T - toxic death; type: functional, organism-based; parameters: dose 320 mg/kg
[16] = test system: Mus musculus; test: Tested for antiTrypanosomal activity against Trypanosoma rhodesiense in mice at dose of 640 mg/kg expressed as mean survival time (MST) or cures, T - toxic death; type: functional, organism-based; parameters: dose 640 mg/kg
[17] = test system: Mus musculus; test: Tested for antitrypanosomal activity against trypanosoma rhodesiense in mice at dose of 424 mg/kg expressed as mean survival time (MST) or cures; type: functional
[18] = test system: Mus musculus; test: Tested for antiTrypanosomal activity against Trypanosoma rhodesiense in mice at dose of 6.6 mg/kg expressed as mean survival time (MST) or cures; type: functional
[19] = test system: Mus musculus; test: Tested for antiTrypanosomal activity against Trypanosoma rhodesiense in mice at dose of 106 mg/kg expressed as mean survival time (MST) or cures; type: functional
[20] = test system: Mus musculus; test: Tested for antiTrypanosomal activity against Trypanosoma rhodesiense in mice at dose of 3.3 mg/kg expressed as mean survival time (MST) or cures; type: functional
[21] = test system: Mus musculus; test: Tested for antitrypanosomal activity against trypanosoma rhodesiense in mice at dose of 53 mg/kg expressed as mean survival time (MST) or cures; type: functional
[22] = test system: Mus musculus; test: Tested for antiTrypanosomal activity against Trypanosoma rhodesiense in mice at dose of 26.5 mg/kg expressed as mean survival time (MST) or cures; type: functional
[23] = test system: Mus musculus; test: Tested for antiTrypanosomal activity against Trypanosoma rhodesiense in mice at dose of 13.3 mg/kg expressed as mean survival time (MST) or cures; type: functional
[24] = test system: Mus musculus; test: Tested for antiTrypanosomal activity against Trypanosoma rhodesiense in mice at dose of 212 mg/kg expressed as mean survival time (MST) or cures; type: functional
[25] = test system: Mus musculus; test: Tested for antiTrypanosomal activity against Trypanosoma rhodesiense in mice at dose of 53 mg/kg expressed as mean survival time (MST) or cures; type: functional
[26] = test system: Mus musculus; test: Tested for antiTrypanosomal activity by screening against Trypanosoma rhodesiense in mice at dose of 424 mg/kg expressed as mean survival time (MST) or cures T - toxic death; type: functional, organism-based; parameters: dose 424 mg/kg

| Structure (SMILES) | Cures [1] | Cures [2] | Cures [3] | Cures [4] | Cures [5] | Cures [6] | Cures [7] | Cures [9] | Cures [10] | further results |
| --- | --- | --- | --- | --- | --- | --- | --- | --- | --- | --- |
| N=C(N)c1ccc(/C=C/c2ccc(C(=N)N)cc2)cc1 [STILBAMIDINE] | 5 | 5 | 5 | 5 | 5 | 5 | 5 | 5 | 5 | Cures [8]: 2 |
| Cl.Cl.c1cc(-c2nnc(-c3ccc(C4=NCCCN4)cc3)s2)ccc1C1=NCCCN1 | – | – | – | – | – | – | – | – | – | Delta MST [11]: Toxic death; Delta MST [1]: 1.1 days; Delta MST [12]: Toxic death; Delta MST [13]: Toxic death |
| Cl.Cl.c1cc(-c2cnc(-c3ccc(C4=NCCCN4)cc3)o2)ccc1C1=NCCCN1 | 5 | – | 3 | 3 | – | 5 | 5 | 2 | – | Delta MST [14]: Toxic death; Delta MST [15]: Toxic death; Delta MST [16]: Toxic death; Delta MST [8]: 2.7 days |
| Cl.Cl.N=C(N)c1ccc(-c2nnc(-c3ccc(C(=N)N)cc3)s2)cc1 | – | – | – | – | – | – | – | – | – | Cures [17]: 2; Cures [18]: 4; Cures [19]: 5; Cures [20]: 3; Cures [21]: 5; Cures [22]: 5; Cures [23]: 5; Cures [24]: 5; Delta MST [8]: 2 days |
| CC1CNC(c2ccc(-c3cnc(-c4ccc(C5=NC(C)CN5)cc4)o3)cc2)=N1.Cl.Cl (configuration not stated) | – | – | – | – | – | – | – | – | – | Delta MST [25]: 2.4 days; Delta MST [19]: 5.2 days; Delta MST [22]: 2.2 days; Delta MST [26]: Toxic death; Delta MST [23]: 1 days; Delta MST [24]: 6.8 days |
| Cl.Cl.c1cc(-c2cnc(-c3ccc(C4=NCCN4)cc3)o2)ccc1C1=NCCN1 | – | – | – | – | – | – | – | – | – | Delta MST [17]: 1.6 days; Delta MST [19]: 0.4 days; Delta MST [22]: 0.2 days |
| Cl.Cl.c1cc(-c2nnc(-c3ccc(C4=NCCCN4)cc3)o2)ccc1C1=NCCCN1 | – | – | – | – | – | – | – | – | – | Delta MST [11]: Toxic death; Delta MST [18]: 1.3 days; Cures [22]: 5; Cures [23]: 1; Delta MST [12]: Toxic death |
| N=C(N)c1ccc(/C=C/c2ccc(C(=N)N)cc2O)cc1 [HYDROXYSTILBAMIDINE] | 5 | 5 | 5 | 5 | 5 | 5 | 5 | 5 | 5 | Cures [8]: 2 |
| N=C(Nc1ccc(NC(=N)c2ccccc2)o1)c1ccccc1 | 5 | 5 | 5 | 4 | 5 | 5 | 5 | 5 | 5 | Cures [8]: 4 |
| CC1CNC(c2ccc(-c3nnc(-c4ccc(C5=NC(C)CN5)cc4)o3)cc2)=N1 (configuration not stated) | – | – | – | – | – | – | – | – | – | Delta MST [11]: Toxic death; Delta MST [12]: Toxic death; Delta MST [13]: Toxic death |
| Cl.Cl.c1cc(-c2ccc(-c3ccc(C4=NCCN4)cc3)nn2)ccc1C1=NCCN1 | – | 5 | – | – | – | – | – | 1 | 3 | Delta MST [1]: 1.1 days; Delta MST [6]: 0.3 days; Delta MST [7]: 1.1 days |
| Cl.Cl.c1cc(-c2ccc(-c3ccc(C4=NCCCN4)cc3)nn2)ccc1C1=NCCCN1 | 4 | – | – | – | – | 1 | 4 | 1 | – | Delta MST [12]: Toxic death |
| N=C(N)c1ccc(OCCCCCOc2ccc(C(=N)N)cc2)cc1 [PENTAMIDINE] | 5 | 5 | 5 | 4 | 5 | 5 | 5 | 5 | 5 | Cures [8]: 1 |
| Cl.Cl.N=C(N)c1ccc(-c2cnc(-c3ccc(C(=N)N)cc3)o2)cc1 | 5 | 5 | 5 | 3 | 5 | 5 | 5 | 5 | 5 | Delta MST [8]: 1.8 days |
| Cl.Cl.N=C(N)c1ccc(-c2nnc(-c3ccc(C(=N)N)cc3)o2)cc1 | – | – | – | – | – | – | – | – | – | Delta MST [1]: 0.8 days; Delta MST [16]: Toxic death; Delta MST [10]: 0.8 days |
| Cl.Cl.c1cc(-c2nnc(-c3ccc(C4=NCCN4)cc3)o2)ccc1C1=NCCN1 | – | – | – | – | – | – | – | – | – | Delta MST [1]: 0.8 days; Delta MST [16]: Toxic death; Delta MST [10]: 1 days |
